Experimental data published in ChEMBL document CHEMBL1201862, “PubChem BioAssay data set” (2004).
The source made the active and inactive calls. No stated cut-off is given here; in the data, actives have a measured IC50 and inactives only a lower limit.

Biological target: Envelope glycoprotein gp160 (Human immunodeficiency virus 1, UniProt Q6QLK5)
Assay: inhibitors of HIV fusion peptide binding, primary screen, biochemical, uHTS, fluorescence dequenching (AID 1986)

Envelope glycoprotein gp160, sequence (Q6QLK5 whole entry, the tested form may be a part): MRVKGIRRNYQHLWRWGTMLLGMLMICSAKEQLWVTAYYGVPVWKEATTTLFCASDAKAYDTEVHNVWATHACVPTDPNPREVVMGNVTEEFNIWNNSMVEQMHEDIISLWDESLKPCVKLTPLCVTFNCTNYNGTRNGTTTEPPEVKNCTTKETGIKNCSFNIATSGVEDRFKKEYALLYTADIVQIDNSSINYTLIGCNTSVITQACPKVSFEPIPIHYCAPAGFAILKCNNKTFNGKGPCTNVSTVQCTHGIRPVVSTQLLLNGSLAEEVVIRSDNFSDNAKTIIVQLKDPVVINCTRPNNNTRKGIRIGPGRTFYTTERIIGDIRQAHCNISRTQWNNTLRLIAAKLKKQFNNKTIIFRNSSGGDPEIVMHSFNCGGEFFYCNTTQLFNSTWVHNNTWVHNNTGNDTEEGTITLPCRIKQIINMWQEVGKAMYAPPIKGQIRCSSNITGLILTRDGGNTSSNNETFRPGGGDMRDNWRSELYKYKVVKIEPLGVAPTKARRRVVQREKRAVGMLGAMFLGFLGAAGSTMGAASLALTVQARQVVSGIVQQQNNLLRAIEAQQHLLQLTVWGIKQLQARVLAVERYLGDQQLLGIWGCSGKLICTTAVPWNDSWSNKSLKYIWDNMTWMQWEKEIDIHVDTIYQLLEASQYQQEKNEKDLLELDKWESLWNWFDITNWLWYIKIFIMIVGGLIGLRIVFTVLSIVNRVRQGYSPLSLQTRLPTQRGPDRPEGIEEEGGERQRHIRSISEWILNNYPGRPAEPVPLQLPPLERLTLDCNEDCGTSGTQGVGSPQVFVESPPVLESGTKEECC

COc1cc(/C=C2\C(=N)N3N=C(S(C)(=O)=O)SC3=NC2=O)ccc1OS(=O)(=O)c1ccccc1
IC50: 19.3 µM (active)

O=C1N=C(NS(=O)(=O)c2ccccc2)S/C1=C\c1cc([N+](=O)[O-])ccc1O
IC50: 12.7 µM (active)

COc1cc(Cl)cc(C(c2c(C(=O)O)[nH]c3ccccc23)c2c(C(=O)O)[nH]c3ccccc23)c1O
IC50: 4.81 µM (active)

N=C1/C(=C/c2ccc(-c3cccc(C(=O)O)c3)o2)C(=O)N=C2SC=C(c3ccccc3)N12
IC50: 6.34 µM (active)

CCS(=O)(=O)C1=NSC2=NC(=O)/C(=C\c3ccc(OS(=O)(=O)c4ccccc4)cc3)C(=N)N21
IC50: 19.9 µM (active)
